According to patent US11738008B2, “N-methyl-D-aspartic acid receptor modulators” (Emory University, priority 2018, dated 2023):
Where two headings read alike, the source gives them in different places.

Experiments:
β1 = β1 (Homo sapiens, UniProt P08588); experiment: NIMH PDSP radioligand binding, β1; conditions: read-out: Radioligand binding in 10 μM compound (% control)
Protocol: (§1) The NIMH PDSP is Directed by Bryan L. Roth at the University of North Carolina at Chapel Hill and Project Officer Jamie Driscoll at NIMH, Bethesda Md., USA. Radioligand binding was measured in the presence of 10 μM 1180-420 and 1180-447. […] For experimental details please refer to the PDSP web site https://pdsp.unc.edu/ims/investigator/web/. Both 1180-420 and 1180-447 were also tested at AMPA, nicotinic acetylcholine, serotonin, GABA, and glycine ion channels using a two-electrode voltage clamp assay.
(§2) Receptor binding profiles of compound 1180-447 were generously provided by the National Institute of Mental Health's Psychoactive Drug Screening Program, Contract # HHSN-271-2013-00017-C(NIMH PDSP). The NIMH PDSP is directed by Bryan L. Roth at the University of North Carolina at Chapel Hill and Project Officer Jamie Driscoll at NIMH, Bethesda Md., USA. Radioligand binding was measured in the presence of 10 μM 1180-447. […] For experimental details please refer to the PDSP web site https://pdsp.unc.edu/ims/investigator/web/.
(§3) The NIMH PDSP is Directed by Bryan L. Roth at the University of North Carolina at Chapel Hill and Project Officer Jamie Driscoll at NIMH, Bethesda Md., USA. Radioligand binding was measured in the presence of 10 μM 1180-420. […] For experimental details please refer to the PDSP web site https://pdsp.unc.edu/ims/investigator/web/.

α1A = α1A (Homo sapiens, UniProt P35348); experiment: NIMH PDSP radioligand binding, α1A; conditions: read-out: Radioligand binding in 10 μM compound (% control)
Protocol: as §1, §2, §3

α1β2γ2-GABAA = biological target: T1, α1β2γ2-GABAA (Homo sapiens, UniProt P14867+P18507+P47870); experiment: Off-target two-electrode voltage clamp assay, α1β2γ2-GABAA; format: cell-based; conditions: 10 μM, mean ± SEM
T1 construct: expressed in transfected cells
Protocol: as §1

δ-opioid receptor = δ-opioid receptor (Homo sapiens, UniProt P41143); experiment: NIMH PDSP radioligand binding, δ-opioid receptor; conditions: read-out: Radioligand binding in 10 μM compound (% control)
Protocol: as §1, §2, §3

[1] = test system: benzodiazapine rat brain site; experiment: NIMH PDSP radioligand binding, benzodiazapine rat brain site
Protocol: as §1, §2, §3

α2C = α2C (Homo sapiens, UniProt P18825); experiment: NIMH PDSP radioligand binding, α2C; conditions: read-out: Radioligand binding in 10 μM compound (% control)
Protocol: as §1, §2, §3

5-HT7 = biological target: T2, 5-HT7 (Homo sapiens, UniProt P34969); experiment: NIMH PDSP radioligand binding, 5-HT7; conditions: read-out: Radioligand binding in 10 μM compound (% control)
T2 construct: NIMH PDSP (assay provider)
Protocol: as §1, §2, §3

D4 = biological target: T3, D4 (Homo sapiens, UniProt P21917); experiment: NIMH PDSP radioligand binding, D4; conditions: read-out: Radioligand binding in 10 μM compound (% control)
T3 construct: NIMH PDSP (assay provider)
Protocol: as §1, §2, §3

5-HT6 = biological target: T4, 5-HT6 (Homo sapiens, UniProt P50406); experiment: NIMH PDSP radioligand binding, 5-HT6; conditions: read-out: Radioligand binding in 10 μM compound (% control)
T4 construct: NIMH PDSP (assay provider)
Protocol: as §1, §2, §3

5-HT3 = biological target: T5, 5-HT3 (Homo sapiens, UniProt P46098); experiment: NIMH PDSP radioligand binding, 5-HT3; conditions: read-out: Radioligand binding in 10 μM compound (% control)
T5 construct: NIMH PDSP (assay provider)
Protocol: as §1, §2, §3

σ1 = σ1 (Homo sapiens, UniProt Q99720); experiment: NIMH PDSP radioligand binding, σ1; conditions: read-out: Radioligand binding in 10 μM compound (% control)
Protocol: as §1, §2, §3

hERG = hERG (Homo sapiens, UniProt Q12809); experiment: NIMH PDSP hERG binding
Protocol: as §1, §2, §3

μ-opioid receptor = μ-opioid receptor (Homo sapiens, UniProt P35372); experiment: NIMH PDSP radioligand binding, μ-opioid receptor; conditions: read-out: Radioligand binding in 10 μM compound (% control)
Protocol: as §1, §2, §3

α1β2γδ-nACh = experiment: Off-target two-electrode voltage clamp assay, α1β2γδ-nACh; format: cell-based; conditions: 10 μM, mean ± SEM
Protocol: as §1

5-HT2A = biological target: T6, 5-HT2A (Homo sapiens, UniProt P28223); experiment: NIMH PDSP radioligand binding, 5-HT2A; conditions: for remaining activity at 10 µM: read-out: Radioligand binding in 10 μM compound (% control)
T6 construct: NIMH PDSP (assay provider)
Protocol: as §1, §2, §3

α2A = α2A (Homo sapiens, UniProt P08913); experiment: NIMH PDSP radioligand binding, α2A; conditions: read-out: Radioligand binding in 10 μM compound (% control)
Protocol: as §1, §2, §3

GABAA = experiment: NIMH PDSP radioligand binding, GABAA
Protocol: as §1, §2, §3

5-HT5A = biological target: T7, 5-HT5A (Homo sapiens, UniProt P47898); experiment: NIMH PDSP radioligand binding, 5-HT5A; conditions: read-out: Radioligand binding in 10 μM compound (% control)
T7 construct: NIMH PDSP (assay provider)
Protocol: as §1, §2, §3

β3 = β3 (Homo sapiens, UniProt P13945); experiment: NIMH PDSP radioligand binding, β3; conditions: read-out: Radioligand binding in 10 μM compound (% control)
Protocol: as §1, §2, §3

CNS receptors = experiment: Off-target profile, NIMH PDSP CNS receptors (panel summary); format: binding; conditions: 10 μM
Protocol: as §1, §2, §3

rat GluN1/GluN2D [2] = biological target: rat GluN1/GluN2D (Rattus norvegicus, UniProt P35439+Q62645); experiment: Two-electrode voltage clamp recordings in Xenopus laevis oocytes, potentiation of GluN1/GluN2D; format: cell-based
Protocol: (§4) Xenopus laevis oocytes were purchased unfertilized from Ecocyte (Austin, Tex.). The oocytes were injected with mRNA to express recombinant rat GluN1/GluN2A, GluN1/GluN2B, GluN1/GluN2C, and GluN1/GluN2D and two-electrode voltage clamp (TEVC) recordings were performed. Drs. S. Heinemann (Salk Institute), S. Nakanishi (Kyoto University), and P. Seeburg (University of Heidelberg) provided the cDNAs for rat GluN1-1a (GenBank accession numbers U11418 and U08261, referred to as GluN1 henceforth), GluN2A (D13211), GluN2B (U11419), GluN2C (M91563), and GluN2D (D13213). GluN2C and GluN2D were altered according to literature precedent. […] To prevent the current increase typically seen during experiments with oocytes expressing GluN1/GluN2A receptors, the oocytes were either injected with 20 nL of 100 mM K-BAPTA (potassium 1,2-bis(o-aminophenoxy)ethane-N,N,N,N-tetraacetic acid) or pretreated with 50 μM BAPTA-AM (1,2-bis(o-aminophenoxy)ethane-N,N,N,N-tetraacetic acid tetraacetoxymethyl ester) for 10 minutes.

rat GluN1/GluN2D [3] = biological target: rat GluN1/GluN2D (Rattus norvegicus, UniProt Q62645); experiment: as above; format: cell-based
Protocol: as §4

M4 = M4 (Homo sapiens, UniProt P08173); experiment: NIMH PDSP radioligand binding, M4; conditions: read-out: Radioligand binding in 10 μM compound (% control)
Protocol: as §1, §2, §3

5-HT1D = biological target: T8, 5-HT1D (Homo sapiens, UniProt P28221); experiment: NIMH PDSP radioligand binding, 5-HT1D; conditions: read-out: Radioligand binding in 10 μM compound (% control)
T8 construct: NIMH PDSP (assay provider)
Protocol: as §1, §2, §3

[4] = biological target: norepinephrine transporter (Homo sapiens, UniProt P23975); experiment: NIMH PDSP radioligand binding, norepinephrine transporter; conditions: read-out: Radioligand binding in 10 μM compound (% control)
Protocol: as §1, §2, §3

[5] = biological target: translocator protein (peripheral benzodiazepine site) (Homo sapiens, UniProt P30536); experiment: NIMH PDSP radioligand binding, translocator protein; conditions: read-out: Radioligand binding in 10 μM compound (% control)
Protocol: as §1, §2, §3

T6 sequence (P28223 whole entry, species assumed): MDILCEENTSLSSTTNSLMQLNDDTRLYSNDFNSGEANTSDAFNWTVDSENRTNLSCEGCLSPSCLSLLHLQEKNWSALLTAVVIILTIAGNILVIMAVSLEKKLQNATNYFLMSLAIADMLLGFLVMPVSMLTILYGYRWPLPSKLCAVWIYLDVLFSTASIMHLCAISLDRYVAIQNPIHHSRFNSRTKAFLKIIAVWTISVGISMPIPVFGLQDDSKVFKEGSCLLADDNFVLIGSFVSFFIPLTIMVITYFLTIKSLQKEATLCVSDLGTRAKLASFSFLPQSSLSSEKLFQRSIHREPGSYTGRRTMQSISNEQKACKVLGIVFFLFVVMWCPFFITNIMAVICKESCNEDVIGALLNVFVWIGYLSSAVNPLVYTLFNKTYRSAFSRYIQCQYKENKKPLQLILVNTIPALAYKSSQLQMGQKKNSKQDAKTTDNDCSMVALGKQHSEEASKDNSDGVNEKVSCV
σ1, sequence (Q99720 whole entry): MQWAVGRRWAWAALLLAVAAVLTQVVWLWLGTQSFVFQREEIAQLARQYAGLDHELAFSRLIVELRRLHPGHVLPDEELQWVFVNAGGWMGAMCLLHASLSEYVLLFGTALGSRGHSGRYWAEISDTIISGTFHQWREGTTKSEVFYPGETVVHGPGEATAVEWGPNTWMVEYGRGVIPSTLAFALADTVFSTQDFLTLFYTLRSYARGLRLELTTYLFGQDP
δ-opioid receptor, sequence (P41143 whole entry): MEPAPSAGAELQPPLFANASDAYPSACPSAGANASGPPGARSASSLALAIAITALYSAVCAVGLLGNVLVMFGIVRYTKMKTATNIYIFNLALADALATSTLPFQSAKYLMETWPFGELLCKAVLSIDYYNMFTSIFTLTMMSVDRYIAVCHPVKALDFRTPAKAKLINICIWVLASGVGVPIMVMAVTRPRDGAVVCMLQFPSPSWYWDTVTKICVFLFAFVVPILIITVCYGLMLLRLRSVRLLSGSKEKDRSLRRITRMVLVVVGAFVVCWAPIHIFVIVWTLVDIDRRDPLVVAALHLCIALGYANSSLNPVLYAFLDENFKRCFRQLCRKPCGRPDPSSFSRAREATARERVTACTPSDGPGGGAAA
hERG, sequence (Q12809 whole entry): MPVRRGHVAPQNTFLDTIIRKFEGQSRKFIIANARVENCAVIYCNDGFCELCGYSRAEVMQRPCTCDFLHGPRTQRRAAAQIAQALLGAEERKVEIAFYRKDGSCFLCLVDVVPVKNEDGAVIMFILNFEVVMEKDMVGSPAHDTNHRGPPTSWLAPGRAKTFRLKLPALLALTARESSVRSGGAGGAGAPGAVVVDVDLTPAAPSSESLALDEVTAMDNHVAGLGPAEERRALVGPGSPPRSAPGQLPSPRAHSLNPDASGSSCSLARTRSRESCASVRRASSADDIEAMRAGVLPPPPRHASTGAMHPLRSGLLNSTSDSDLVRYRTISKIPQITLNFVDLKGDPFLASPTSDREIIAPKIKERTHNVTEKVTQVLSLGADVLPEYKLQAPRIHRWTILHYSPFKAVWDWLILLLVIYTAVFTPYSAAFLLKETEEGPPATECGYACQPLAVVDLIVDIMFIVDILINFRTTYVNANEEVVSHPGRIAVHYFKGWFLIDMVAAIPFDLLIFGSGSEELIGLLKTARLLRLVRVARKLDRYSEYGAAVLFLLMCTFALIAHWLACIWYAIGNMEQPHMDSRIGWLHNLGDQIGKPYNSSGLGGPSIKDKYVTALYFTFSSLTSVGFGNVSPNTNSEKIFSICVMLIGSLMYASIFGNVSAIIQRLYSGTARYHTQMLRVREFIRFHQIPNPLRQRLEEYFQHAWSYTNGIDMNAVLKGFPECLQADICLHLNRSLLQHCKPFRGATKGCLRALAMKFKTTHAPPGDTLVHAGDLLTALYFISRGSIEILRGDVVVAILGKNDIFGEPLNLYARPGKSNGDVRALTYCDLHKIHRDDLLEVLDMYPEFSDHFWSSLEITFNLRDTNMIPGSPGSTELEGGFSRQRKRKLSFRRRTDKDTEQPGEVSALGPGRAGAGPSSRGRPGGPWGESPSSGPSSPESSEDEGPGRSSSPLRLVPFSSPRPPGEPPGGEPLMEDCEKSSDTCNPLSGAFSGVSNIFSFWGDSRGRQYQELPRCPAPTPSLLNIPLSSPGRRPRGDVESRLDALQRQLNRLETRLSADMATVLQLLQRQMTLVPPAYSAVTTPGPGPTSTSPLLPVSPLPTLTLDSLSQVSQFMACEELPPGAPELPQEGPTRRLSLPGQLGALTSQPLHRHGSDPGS
T1 sequence (P14867 28-456): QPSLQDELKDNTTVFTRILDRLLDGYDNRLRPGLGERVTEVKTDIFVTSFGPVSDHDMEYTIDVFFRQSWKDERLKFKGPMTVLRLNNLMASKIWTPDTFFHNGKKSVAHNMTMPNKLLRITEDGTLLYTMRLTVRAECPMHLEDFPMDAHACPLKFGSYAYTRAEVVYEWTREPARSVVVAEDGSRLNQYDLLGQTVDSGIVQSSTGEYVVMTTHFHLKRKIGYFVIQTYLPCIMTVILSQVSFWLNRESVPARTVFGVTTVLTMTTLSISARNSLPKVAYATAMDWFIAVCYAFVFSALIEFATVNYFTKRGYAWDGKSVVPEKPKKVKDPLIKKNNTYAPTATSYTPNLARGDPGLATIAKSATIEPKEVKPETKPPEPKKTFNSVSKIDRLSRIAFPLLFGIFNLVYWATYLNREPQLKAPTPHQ
T1 sequence (P47870 25-512 limits assumed): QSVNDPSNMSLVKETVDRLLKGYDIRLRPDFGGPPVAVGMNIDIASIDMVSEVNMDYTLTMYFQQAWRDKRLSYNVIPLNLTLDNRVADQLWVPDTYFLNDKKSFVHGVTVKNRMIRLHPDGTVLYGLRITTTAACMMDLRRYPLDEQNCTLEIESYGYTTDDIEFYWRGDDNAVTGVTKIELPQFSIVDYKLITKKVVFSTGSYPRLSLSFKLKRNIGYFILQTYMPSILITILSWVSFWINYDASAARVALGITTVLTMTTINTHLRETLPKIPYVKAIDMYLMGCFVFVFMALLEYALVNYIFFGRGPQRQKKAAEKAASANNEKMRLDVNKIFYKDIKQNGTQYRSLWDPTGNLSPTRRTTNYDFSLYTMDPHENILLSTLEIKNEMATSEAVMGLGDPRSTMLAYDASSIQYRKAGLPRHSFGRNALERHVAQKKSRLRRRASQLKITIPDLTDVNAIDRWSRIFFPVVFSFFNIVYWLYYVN
T1 sequence (P18507 39-475 limits assumed): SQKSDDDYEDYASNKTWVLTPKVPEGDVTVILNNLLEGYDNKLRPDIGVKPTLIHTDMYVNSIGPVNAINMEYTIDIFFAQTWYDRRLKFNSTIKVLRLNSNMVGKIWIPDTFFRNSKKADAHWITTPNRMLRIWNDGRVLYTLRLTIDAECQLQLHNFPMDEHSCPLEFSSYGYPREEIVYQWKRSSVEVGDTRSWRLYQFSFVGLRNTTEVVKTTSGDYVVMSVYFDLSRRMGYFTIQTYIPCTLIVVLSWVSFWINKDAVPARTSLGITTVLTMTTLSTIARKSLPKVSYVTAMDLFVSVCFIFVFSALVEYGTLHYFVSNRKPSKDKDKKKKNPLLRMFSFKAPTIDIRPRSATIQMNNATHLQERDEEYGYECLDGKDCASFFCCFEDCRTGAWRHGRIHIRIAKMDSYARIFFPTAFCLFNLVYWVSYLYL
norepinephrine transporter, sequence (P23975 whole entry, species assumed): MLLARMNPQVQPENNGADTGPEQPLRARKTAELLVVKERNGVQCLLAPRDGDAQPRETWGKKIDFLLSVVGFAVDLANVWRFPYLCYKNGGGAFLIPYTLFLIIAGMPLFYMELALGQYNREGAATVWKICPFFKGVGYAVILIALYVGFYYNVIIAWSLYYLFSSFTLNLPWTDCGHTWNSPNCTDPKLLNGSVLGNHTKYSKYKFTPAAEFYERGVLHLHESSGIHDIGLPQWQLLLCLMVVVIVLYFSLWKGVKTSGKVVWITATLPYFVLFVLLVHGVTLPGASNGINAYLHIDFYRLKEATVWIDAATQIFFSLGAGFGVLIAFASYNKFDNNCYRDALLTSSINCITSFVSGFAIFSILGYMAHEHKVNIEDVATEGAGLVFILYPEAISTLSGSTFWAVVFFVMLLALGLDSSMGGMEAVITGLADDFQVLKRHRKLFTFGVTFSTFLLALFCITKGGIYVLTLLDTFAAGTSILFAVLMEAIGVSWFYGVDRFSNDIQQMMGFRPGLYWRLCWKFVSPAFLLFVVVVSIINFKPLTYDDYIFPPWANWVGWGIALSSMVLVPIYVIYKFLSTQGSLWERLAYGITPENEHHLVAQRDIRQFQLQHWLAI
α2A, sequence (P08913 whole entry): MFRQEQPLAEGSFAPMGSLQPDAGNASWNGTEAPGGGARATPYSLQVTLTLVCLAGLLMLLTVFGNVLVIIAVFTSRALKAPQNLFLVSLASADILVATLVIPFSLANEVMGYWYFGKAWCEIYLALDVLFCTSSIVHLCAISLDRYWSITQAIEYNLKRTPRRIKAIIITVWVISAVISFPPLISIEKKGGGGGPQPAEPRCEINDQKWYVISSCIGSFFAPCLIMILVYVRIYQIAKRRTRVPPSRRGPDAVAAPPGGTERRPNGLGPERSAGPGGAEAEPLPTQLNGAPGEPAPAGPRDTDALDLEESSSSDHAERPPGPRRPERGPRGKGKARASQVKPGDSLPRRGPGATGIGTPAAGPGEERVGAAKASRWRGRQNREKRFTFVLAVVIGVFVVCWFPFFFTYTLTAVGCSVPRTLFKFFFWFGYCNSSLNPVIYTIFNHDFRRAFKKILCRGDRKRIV
translocator protein (peripheral benzodiazepine site), sequence (P30536 whole entry, species assumed): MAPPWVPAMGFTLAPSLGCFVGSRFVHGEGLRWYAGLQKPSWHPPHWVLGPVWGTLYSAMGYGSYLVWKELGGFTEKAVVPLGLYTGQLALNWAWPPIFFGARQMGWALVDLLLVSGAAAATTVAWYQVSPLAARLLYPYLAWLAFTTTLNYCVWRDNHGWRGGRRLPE

Row | SMILES | remaining activity at 10 µM (β1) | remaining activity at 10 µM (α1A) | % control response (α1β2γ2-GABAA) | remaining activity at 10 µM (δ-opioid receptor) | Radioligand binding in 10 μM compound (% control) [1] | remaining activity at 10 µM (α2C) | remaining activity at 10 µM (5-HT7) | remaining activity at 10 µM (D4) | remaining activity at 10 µM (5-HT6) | remaining activity at 10 µM (5-HT3) | remaining activity at 10 µM (σ1) | Radioligand binding in 10 μM compound (% control) (hERG) | remaining activity at 10 µM (μ-opioid receptor) | % control response (α1β2γδ-nACh) | remaining activity at 10 µM (5-HT2A) | remaining activity at 10 µM (α2A) | Radioligand binding in 10 μM compound (% control) (GABAA) | remaining activity at 10 µM (5-HT5A) | remaining activity at 10 µM (β3) | receptors with >50% inhibition / receptors tested (CNS receptors) | further results
1 | COc1ccc(OCC2c3cccn3CC(=O)N2Cc2cccc(C(F)(F)F)c2)cc1 (racemic) [1180-447, 1-((4-Methoxyphenoxy)methyl)-2-(3-(trifluoromethyl)benzyl)-1,2-dihydropyrrolo[1,2-a]pyrazin-3(4H)-one] | 80% | 97% | 81.7 ± 7.5 % control response | 93% | 88 % control | 85% | 83% | 101% | 85% | 68% | 76% | 70 % control | 99% | 78.5 ± 4.5 % control response | 49% | 98% | 118 % control | 92% | 73% | 4/44 | Ki (5-HT2A; read-out: pKi values from non-linear regression of radioligand competition binding isotherms (converted)): 2000 nM; EC50 (rat GluN1/GluN2D [2]; read-out: GluN2D pEC50 [95% CI] (converted)): 1580 nM; GluN2D (max) (%) (rat GluN1/GluN2D [3]): (396) %; remaining activity at 10 µM (M4): 100%; remaining activity at 10 µM (5-HT1D): 115%; remaining activity at 10 µM [4]: 70%; remaining activity at 10 µM [5]: 84%
2 | COc1ccc(OCC2c3cccn3CCN2C(=O)c2cccc(Cl)c2)cc1 (centres unmarked) [1180-420, (3-Chlorophenyl)(1-((4-methoxyphenoxy)methyl)-3,4-dihydropyrrolo[1,2-a]pyrazin-2(1H)-yl)methanone] | 98% | 91% | 81.4 ± 8.5 % control response | 89% | 71 % control | 83% | 115% | 90% | 75% | 116% | 76% | 73 % control | 104% | 93.4 ± 15.5 % control response | 69% | 79% | 110 % control | 95% | 74% | 4/44 | EC50 (rat GluN1/GluN2D [2]; read-out: GluN2D EC50): 2300 nM; GluN2D Max % (rat GluN1/GluN2D [3]; maximal response, current without potentiator = 100%): 374%; remaining activity at 10 µM (M4): 84%; remaining activity at 10 µM (5-HT1D): 112%; remaining activity at 10 µM [4]: 75%; remaining activity at 10 µM [5]: 67%
